Measured values published in patent publication US10307463B2 (priority 2003, dated 2019).

Tests used:
[1] = tested on: formalin-induced tonic flinch responses; settings: rat, in vivo; cited from earlier work
[2] = tested on: thermal (heat) response latencies; settings: rat, in vivo
[3] = tested on: GI transit; settings: rat, in vivo
[4] = tested on: formalin-induced tonic flinch responses; settings: rat, in vivo
[5] = tested on: heart rate and arterial blood pressure; settings: rat, in vivo

## CN1CC[C@]23c4c5ccc(O)c4OC2C(O)C=C[C@H]3[C@H]1C5 (stereo partly drawn) [morphine, 7,8-didehydro-4,5-epoxy-17-methylmorphinan-3,6-diol]
[1]
  tonic formalin-induced flinching behavior after six days infusion: significantly reduced
[2]
  development of tolerance to analgesic effects: declined in magnitude
  thermal (heat) response latencies: moderately antinociceptive
[3]
  GI transit: dose-dependent inhibition

## CCCCN1CCCCC1C(=O)Nc1c(C)cccc1C (stereo not drawn) [bupivacaine]
[4]
  formalin-induced tonic (persistent) pain behavior: did not significantly inhibit
  hindpaw paralysis: immediate but transient hindpaw paralysis

## Clc1cccc(Cl)c1N=C1NCCN1 [clonidine, 2,6-dichloro-N-2-imidazolidinylidenebenzenamine]
[4]
  formalin-induced tonic (persistent) pain behavior: dose-dependently suppressed
[5]
  heart rate: dose-dependent bradycardia

## NCC(CC(=O)O)c1ccc(Cl)cc1 (stereo not drawn) [baclofen, γ-amino-β-(p-chlorophenyl) butyric acid]
[4]
  formalin-induced tonic (persistent) pain behavior: dose-dependent reductions
